This passage reports IC50 results from patent US20200223839A1, “FLUORO-CONTAINING COMPOUNDS, USE AND PREPARATION THEREOF” (JIANGSU YINGKEBEITA YIYAOKEJI CO. LTD, priority 2017, published 2020).

What all share (format): cell-based
One test relates to T-47D. Put plainly: Cytotoxicity assay by the CTG method, T-47D. Particulars: Homo sapiens, T47D, Breast cancer, 72 h. Here is the method:
(§1) The corresponding cells were harvested from flask into cell culture medium and the cell number were counted. The cells were diluted with culture medium to the desired density and 40 μL of cell suspension was added into each well of 384-well cell culture plate as designated. The plates were covered with lid and placed in room temperature for 30 minutes without shaking and then were transferred plates into 37° C. 5% CO2 incubator overnight for cell attachment.
(§2) Compound preparation and treatment: Test compounds were received or dissolved at 30 mM stock solution and control compound Staurosporine was stored as 10 mM and 1 mM concentration. 45 uL of stock solution was transferred to a 384 pp-plate. 3 fold, 10-point dilution were performed via transferring 15 uL compound into 30 μL DMSO by using TECAN (EVO200) liquid handler. The plates were spun at room temperature at 1,000 RPM for 1 minute and shaken at a plate shaker for 2 minutes. […]
(§3) The plate from incubators were placed and equilibrated at room temperature for 15 minutes. […] 40 μL of CellTiter-Glo reagent were transferred into each well to be detected (at 1:1 to culture medium). Then the plates were placed at room temperature for 30 min followed by reading on EnSpire.
(§4) The inhibition activity was calculated following the formula below: […]
(§5) The IC50 were calculated by fitting the Curve using Xlfit (v5.3.1.3): […]

For a further test, the system named is HT29. Put plainly: Cytotoxicity assay by the CTG method, HT29. Particulars: Homo sapiens, HT-29, HT29, Colon cancer, 72 h. Here is the method:
as §1, §2, §3, §4, §5

The next test relates to HL-60. The test is described as follows: Cytotoxicity assay by the CTG method, HL-60. To be noted: Homo sapiens, HL-60, Leukemia, 72 h. Here is the method: as §1, §2, §3, §4, §5
In another test the test system is MV-4-11. The test is described as follows: Cytotoxicity assay by the CTG method, MV-4-11. To be noted: Homo sapiens, MV4-11, MV-4-11, Leukemia, 72 h. As for the experimental part:
as §1, §2, §3, §4, §5

Another test has as its system Calu-6. The test is described as follows: Cytotoxicity assay by the CTG method, Calu-6. To be noted: Homo sapiens, Calu-6, Lung cancer, 72 h. Here is the method: as §1, §2, §3, §4, §5
In another test the test system is LNCaP. The test is described as follows: Cytotoxicity assay by the CTG method, LNCaP. Particulars: Homo sapiens, Prostate cancer, 72 h. As for the experimental part:
as §1, §2, §3, §4, §5

A further test concerns U87MG. Put plainly: Cytotoxicity assay by the CTG method, U87MG. Particulars: Homo sapiens, U-87 MG, Glioblastoma, 72 h. As for the experimental part: as §1, §2, §3, §4, §5

pIC50: −log10 of the molar value.

On to `Cc1ccc(S(=O)(=O)Nc2nc3ccccc3nc2Nc2ccc3nsnc3c2)cc1F` [Compound 4f, N-[3-(benzo[1,2,5]thiadiazol-5-ylamino)-quinoxalin-2-yl]-3-fluoro-4-methyl-benzenesulfonamide], for which the pIC50 is 5.24 in the test on T-47D; 5.61 in the test on HT29; 5.12 in the test on HL-60; 5.17 with MV-4-11; 5.31 in the test with Calu-6; 5.49 in the test on LNCaP. The compound further showed a pIC50 with U87MG of 4.75.

One may read the pIC50 as −log10 of the IC50, conventionally taken in molar units.
